Source: article PMC8607422, “Development of a novel TLR8 agonist for cancer immunotherapy” (Molecular Biomedicine, 2020)

How the values were obtained:
hERG potassium channel = tested on: T1, hERG potassium channel; test: Eurofins Cerep44 off-target panel; settings: human; 10 μM compound; >50% considered significant; read-out: effect on potassium channel hERG in Cerep screen (% inhibition of binding)
T1 construct: purchased Eurofins Cerep44 panel
Description: Compound binding was calculated as a % inhibition of the binding of a radioactively labeled ligand specific for each target. Compound enzyme inhibition effect was calculated as a % inhibition of control enzyme activity.

[1] = Cell viability (ATPlite 1 Step) cytotoxicity assay; format: cell-based; settings: human, HEK-Blue hTLR7 and hTLR8 cells
Excerpt: (§1) HEK-Blue™ hTLR4, 7, 8 and 9 cell lines were purchased from InvivoGen (Hong Kong). The cells express the human TLR gene and NF-κB/AP-1-inducible SEAP (secreted embryonic alkaline phosphatase) reporter gene. SEAP levels produced upon TLR stimulation can be determined by QUANTI-Blue™. In the cell-based assay, the main reagents used were QUANTI-Blue™ (InvivoGen) and ATPlite 1 Step (Perkin Elmer). The main instruments used were the microplate reader SpectraMax 340PC (Molecular Device) and Envision (Perkin Elmer). Motolimod and DN052 were synthesized in house. […] The compounds were in 10 mM stock solution in DMSO and stored at − 20°C. The compounds were serially diluted in the concentration range from 0.5 nM to 15 μM (up to 50 μM in the hTLR4, hTLR7 and hTLR9 assays) and added to 96-well plates. DMSO was used as the negative control. LPS-EK, R848, motolimod and ODN2006 were used as the positive control for TLR4, 7, 8 and 9, respectively. The cells were cultured and treated with the compounds at 37°C, 5%CO2 for 24 h. […] After 1.5 h of incubation, the optical density was measured using the spectrophotometer at 650 nm in the microplate reader of SpectraMax 340PC. The cell viability of each well was determined using ATPlite 1 Step following the manufacturer’s instruction. The luminescence signal in each well of plates was measured in the microplate reader of Envision.

[2] = set-up: method as in Northfelt, et al., [39]; settings: human, sc 0.1 mg/m^2; ref Northfelt, et al., [39]; cited from earlier work
serum cytokines = test: In vivo cytokine induction in monkeys; set-up: species or system cynomolgus monkeys; settings: monkey, 1 mg/kg sc single dose
Description: Cynomolgus monkeys were purchased from Guangxi Xiongsen Primate Laboratory Animals Co., Ltd. (Guangxi, China) and three 3–4 years old male monkeys were used in each group. […] A single dose of motolimod was sc administered at 1 mg/kg. Blood samples were collected pre-dose, 6 and 24 h post-dose. Levels of cytokines including IFN-γ, IL-10, IL-1β, IL-6, IL-8, MIP-1α, MIP-1β, G-CSF, IL-12p40, IL-12p70 and TNF-α were measured using MSD ECL cytokine assay kit following the manufacturer’s protocol.

hTLR7 = target: T2, hTLR7 (Homo sapiens, UniProt Q9NYK1); test: HEK-Blue hTLR7 SEAP reporter agonist assay; format: cell-based; settings: HEK-Blue hTLR7 cells, highest concentration 50 μM
T2 construct: host or cells: HEK-Blue hTLR7
T2 sequence (Q9NYK1 27-1049): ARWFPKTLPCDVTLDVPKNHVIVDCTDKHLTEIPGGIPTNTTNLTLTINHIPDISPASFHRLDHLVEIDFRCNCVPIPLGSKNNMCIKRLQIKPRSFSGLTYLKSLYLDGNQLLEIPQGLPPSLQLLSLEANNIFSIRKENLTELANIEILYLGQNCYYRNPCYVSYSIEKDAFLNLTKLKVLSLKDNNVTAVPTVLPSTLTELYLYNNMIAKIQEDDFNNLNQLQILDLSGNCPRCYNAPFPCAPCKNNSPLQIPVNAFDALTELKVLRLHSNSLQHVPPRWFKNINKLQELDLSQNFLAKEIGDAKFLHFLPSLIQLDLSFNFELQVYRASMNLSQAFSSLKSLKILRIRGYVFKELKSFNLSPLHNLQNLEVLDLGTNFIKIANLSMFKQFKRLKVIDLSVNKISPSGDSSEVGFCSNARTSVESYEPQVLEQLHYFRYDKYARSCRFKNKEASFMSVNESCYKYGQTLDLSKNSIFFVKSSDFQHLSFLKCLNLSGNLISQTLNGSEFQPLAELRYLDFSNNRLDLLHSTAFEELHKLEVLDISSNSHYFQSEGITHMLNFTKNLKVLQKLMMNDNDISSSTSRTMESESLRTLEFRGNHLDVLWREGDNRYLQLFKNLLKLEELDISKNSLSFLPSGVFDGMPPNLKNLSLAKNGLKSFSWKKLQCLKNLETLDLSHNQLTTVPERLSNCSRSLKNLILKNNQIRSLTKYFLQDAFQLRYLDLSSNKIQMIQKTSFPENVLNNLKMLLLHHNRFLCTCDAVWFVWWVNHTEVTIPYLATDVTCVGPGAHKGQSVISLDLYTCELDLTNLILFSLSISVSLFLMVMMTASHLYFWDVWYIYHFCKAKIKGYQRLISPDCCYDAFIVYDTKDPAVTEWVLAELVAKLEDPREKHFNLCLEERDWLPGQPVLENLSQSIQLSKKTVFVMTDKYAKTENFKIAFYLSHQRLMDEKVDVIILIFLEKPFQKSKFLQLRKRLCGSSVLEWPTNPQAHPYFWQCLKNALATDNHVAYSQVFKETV
Excerpt: as §1

For `CCCN(CCC)C(=O)C1=Cc2ccc(-c3ccc(C(=O)N4CCCC4)cc3)cc2N=C(N)C1` [Motolimod, motolimod], the inhibition at 10 µM (hERG potassium channel) is listed as 59.2%, the CC50 at 24 h [1] is listed as over 50 µM and the “AUC(0-t)” value [2] is listed as 2.99 ng·h/mL. The Cmax [2] was 1.52 ng/mL, the Tmax [2] was 0.53 h and the t1/2 [2] was 1.73 h. The “serum G-CSF, Mean Values” (serum cytokines; 0 h (pre-dose)) was 7.135 pg/mL, the “serum IFN-γ, Mean Values” (serum cytokines; 0 h (pre-dose)) was 1.017 pg/mL and the “serum IL-1β, Mean Values” (serum cytokines; 0 h (pre-dose)) was 0.000 pg/mL. The “serum IL-6, Mean Values” (serum cytokines; 0 h (pre-dose)) was 1.510 pg/mL, the “serum IL-8, Mean Values” (serum cytokines; 0 h (pre-dose)) was 0.000 pg/mL and the “serum IL-10, Mean Values” (serum cytokines; 0 h (pre-dose)) was 0.271 pg/mL. For the same compound, the “serum IL-12p40, Mean Values” (serum cytokines; 0 h (pre-dose)) was 131.413 pg/mL, the “serum IL-12p70, Mean Values” (serum cytokines; 0 h (pre-dose)) was 2.582 pg/mL and the “serum MIP-1α, Mean Values” (serum cytokines; 0 h (pre-dose)) was 71.636 pg/mL. For the same compound, the “serum MIP-1β, Mean Values” (serum cytokines; 0 h (pre-dose)) was 93.266 pg/mL, the “serum G-CSF, Mean Values” (serum cytokines; 6 h) was 345.154 pg/mL and the “serum IFN-γ, Mean Values” (serum cytokines; 6 h) was 0.500 pg/mL. For the same compound, the “serum IL-1β, Mean Values” (serum cytokines; 6 h) was 0.286 pg/mL, the “serum IL-6, Mean Values” (serum cytokines; 6 h) was 342.661 pg/mL and the “serum IL-8, Mean Values” (serum cytokines; 6 h) was 0.378 pg/mL. For the same compound, the “serum IL-10, Mean Values” (serum cytokines; 6 h) was 15.222 pg/mL, the “serum IL-12p40, Mean Values” (serum cytokines; 6 h) was 305.212 pg/mL and the “serum IL-12p70, Mean Values” (serum cytokines; 6 h) was 5.154 pg/mL. The “serum MIP-1α, Mean Values” (serum cytokines; 6 h) was 227.638 pg/mL, the “serum MIP-1β, Mean Values” (serum cytokines; 6 h) was 1655.094 pg/mL and the “serum G-CSF, Mean Values” (serum cytokines; 24 h) was 32.168 pg/mL. The “serum IFN-γ, Mean Values” (serum cytokines; 24 h) was 0.462 pg/mL, the “serum IL-1β, Mean Values” (serum cytokines; 24 h) was 0.099 pg/mL and the “serum IL-6, Mean Values” (serum cytokines; 24 h) was 12.185 pg/mL. The “serum IL-8, Mean Values” (serum cytokines; 24 h) was 0.119 pg/mL, the “serum IL-10, Mean Values” (serum cytokines; 24 h) was 1.347 pg/mL and the “serum IL-12p40, Mean Values” (serum cytokines; 24 h) was 118.409 pg/mL. For the same compound, the “serum IL-12p70, Mean Values” (serum cytokines; 24 h) was 3.305 pg/mL, the “serum MIP-1α, Mean Values” (serum cytokines; 24 h) was 87.417 pg/mL and the “serum MIP-1β, Mean Values” (serum cytokines; 24 h) was 221.881 pg/mL. It also gave an EC50 (hTLR7) of 19.8 µM.
